Read-outs that look alike come from different tables or passages of the source.
What was measured:
Type in all cases: cell-based
MOLT-4 cells = experiment: CTG (CellTiter-Glo) cell viability assay, MOLT-4; conditions: Homo sapiens, 3 day incubation, read-out: CTG Cell Viability Assay - MOLT-4 3 day: Average external-IC50
Method in brief: (§1)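 IC50 is from a three-parameter logistic fit of CellTiter-Glo luminescence after 3-day treatment of cells seeded at 10,000 per well. Codes: MOLT-4 A <0.1, B 0.1-1.0, C >1.0-3.0, D >3.0 μM; Caki-2 A <0.1, B 0.1-1.0, C >1.0-10.0, D >10.0 μM.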

Caki-2 cells = experiment: CTG (CellTiter-Glo) cell viability assay, Caki-2; conditions: Homo sapiens, 72 h, 3 day incubation, read-out: CTG Chempartner - Caki-2 3 day: Average external-IC50
Method in brief: as §1

BCL-XL = target: T1, BCL-XL (Homo sapiens, UniProt Q07817); experiment: Bcl-xL ELISA degradation in MOLT-4 cells, 6 h; conditions: for DC50: read-out: Bcl-xL ELISA in MOLT-4 degradation 6 h: Mean external-Abs DC50
T1 construct: endogenous in cells; host or cells: MOLT-4
T1 sequence (Q07817 whole entry): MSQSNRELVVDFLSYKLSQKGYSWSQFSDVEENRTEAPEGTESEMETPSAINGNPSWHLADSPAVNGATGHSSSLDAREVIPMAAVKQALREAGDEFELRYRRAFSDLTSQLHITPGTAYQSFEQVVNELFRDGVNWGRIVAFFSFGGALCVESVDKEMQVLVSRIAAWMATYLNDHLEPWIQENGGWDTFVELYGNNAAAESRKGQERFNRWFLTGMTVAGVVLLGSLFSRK
Protocol: The letter codes for BCL-XL DC50 include: A (<0.01 μM); B (0.01-0.1 μM); C (>[…]); D (>0.5-1.0 μM); and E (>1.0 μM). The letter codes for Dmax % include A (>75%); B (50 to 75%); C (<50%).

SMILES	IC50 (MOLT-4 cells; MOLT-4, 72 h)	IC50 (Caki-2 cells)	Dmax (BCL-XL)	DC50 (BCL-XL)	IC50 (MOLT-4 cells; 72 h)
COc1nn(C)c2ccc([C@H](C)NC(=O)[C@@H]3C[C@@H](O)CN3C(=O)[C@@H](NC(=O)CCCCCS(=O)(=O)NC(=O)c3nc(N4CCc5cccc(C(=O)Nc6nc7cccnc7s6)c5C4)ccc3-c3cnn(CC4CCCCC4)c3C)C(C)(C)C)cc12 [I-489]	< 100 nM	> 10000 nM	> 75%	10 to 100 nM	–
COc1nn(C)c2ccc([C@@H](C)NC(=O)[C@@H]3C[C@@H](O)CN3C(=O)[C@@H](NC(=O)CCCCCS(=O)(=O)NC(=O)c3nc(N4CCc5cccc(C(=O)Nc6nc7cccnc7s6)c5C4)ccc3-c3cnn(CC4CCCCC4)c3C)C(C)(C)C)cc12 [I-490]	100 to 1000 nM	> 10000 nM	> 75%	100 to 500 nM	–
Cc1ncsc1-c1ccc([C@H](C)NC(=O)[C@@H]2C[C@@H](O)CN2C(=O)[C@@H](NC(=O)CCCCCS(=O)(=O)NC(=O)c2nc(N3CCc4cccc(C(=O)Nc5nc6ccccc6s5)c4C3)ccc2-c2cccc3c2cnn3C(C)C)C(C)(C)C)cc1 [I-302]	1000 to 3000 nM	1000 to 10000 nM	50 to 75%	500 to 1000 nM	–
Cc1cc(N(C)c2ccc(-c3cnn(CC45CC6CC(CC(C6)C4)C5)c3C)c(C(=O)NS(=O)(=O)CCCCCC(=O)N[C@H](C(=O)N3C[C@H](O)C[C@H]3C(=O)N[C@@H](C)c3ccc4c(c3)c(C)nn4C)C(C)(C)C)n2)nnc1Nc1nc2ccccc2s1 (single isomer, unassigned) [I-491]	< 100 nM	> 10000 nM	> 75%	< 10 nM	–
C#Cc1ccc(C2(NC(=O)[C@@H]3C[C@@H](O)CN3C(=O)[C@@H](NC(=O)CCCCCS(=O)(=O)NC(=O)c3nc(N(C)c4cc(C)c(Nc5nc6ccccc6s5)nn4)ccc3-c3cnn(CC45CC6CC(CC(C6)C4)C5)c3C)C(C)(C)C)CC2)cc1 [I-481]	< 100 nM	> 10000 nM	> 75%	< 10 nM	–
Cc1ncsc1-c1ccc([C@H](C)NC(=O)[C@@H]2C[C@@H](O)CN2C(=O)[C@@H](NC(=O)CCCCc2nc(C3CCCN(C(=O)c4nc(N5CCc6cccc(C(=O)Nc7nc8ccccc8s7)c6C5)ccc4-c4cnn(CC5CCCCC5)c4C)C3)no2)C(C)(C)C)cc1 (stereo partly shown) [I-306]	< 100 nM	1000 to 10000 nM	> 75%	10 to 100 nM	–
Cc1ncsc1-c1ccc([C@H](C)NC(=O)[C@@H]2C[C@@H](O)CN2C(=O)[C@@H](NC(=O)C2CCN(c3ccc(S(=O)(=O)NC(=O)c4nc(N5CCc6cccc(C(=O)Nc7nc8ccccc8s7)c6C5)ccc4-c4cnn(CC5CC5)c4C)cc3)CC2)C(C)(C)C)cc1 [I-344]	100 to 1000 nM	> 10000 nM	> 75%	10 to 100 nM	–
Cc1ncsc1-c1ccc(CNC(=O)[C@@H]2C[C@@H](O)CN2C(=O)[C@@H](NC(=O)COc2ccc(S(=O)(=O)NC(=O)c3nc(N4CCc5cccc(C(=O)Nc6nc7ccccc7s6)c5C4)ccc3-c3cnn(CC4CCCCC4)c3C)cc2)C(C)(C)C)cc1 [I-327]	< 100 nM	1000 to 10000 nM	> 75%	10 to 100 nM	–
Cc1cc(N(C)c2ccc(-c3cnn(CC4CCCCC4)c3C)c(C(=O)NS(=O)(=O)CCCCCC(=O)N[C@H](C(=O)N3C[C@H](O)C[C@H]3C(=O)N[C@@H](C)c3ccc(-c4scnc4C)cc3)C(C)(C)C)n2)nnc1Nc1nc2cccnc2s1 [I-436]	1000 to 3000 nM	> 10000 nM	> 75%	500 to 1000 nM	–
Cc1ncsc1-c1ccc([C@H](C)NC(=O)[C@@H]2C[C@@H](O)CN2C(=O)[C@@H](NC(=O)c2ccc(N3CCC(S(=O)(=O)NC(=O)c4nc(N5CCc6cccc(C(=O)Nc7nc8ccccc8s7)c6C5)ccc4-c4cnn(CC5CCCCC5)c4C)CC3)cc2)C(C)(C)C)cc1 [I-303]	100 to 1000 nM	1000 to 10000 nM	> 75%	100 to 500 nM	–
Cc1ncsc1-c1ccc([C@H](C)NC(=O)[C@@H]2C[C@@H](O)CN2C(=O)[C@@H](NC(=O)CCCCCS(=O)(=O)NC(=O)c2nc(N3CCc4cccc(C(=O)Nc5nc6cccnc6s5)c4C3)ccc2-c2cnn(CC(C)(C)C)c2C)C(C)(C)C)cc1 [I-466]	1000 to 3000 nM	> 10000 nM	> 75%	100 to 500 nM	–
Cc1ncsc1-c1ccc([C@H](C)NC(=O)[C@@H]2C[C@@H](O)CN2C(=O)[C@@H](NC(=O)C2CCN(c3ccc(S(=O)(=O)NCc4nc(N5CCc6cccc(C(=O)Nc7nc8ccccc8s7)c6C5)ccc4-c4cnn(CC5CCCCC5)c4C)cc3)CC2)C(C)(C)C)cc1 [I-324]	> 3000 nM	> 10000 nM	< 50%	> 1000 nM	–
Cc1ncsc1-c1ccc([C@H](C)NC(=O)[C@@H]2C[C@@H](O)CN2C(=O)[C@@H](NC(=O)C2CCN(c3ccc(S(=O)(=O)NC(=O)c4nc(N5CCc6cccc(C(=O)Nc7nc8ccccc8s7)c6C5)ccc4-c4cnn(CC5(OCCO)CCCCC5)c4C)cc3)CC2)C(C)(C)C)cc1 [I-409]	< 100 nM	> 10000 nM	> 75%	10 to 100 nM	–
Cc1c(-c2ccc(N3CCc4cccc(C(=O)Nc5nc6cccnc6s5)c4C3)nc2C(=O)NS(=O)(=O)CCCCCC(=O)N[C@H](C(=O)N2C[C@H](O)C[C@H]2C(=O)N[C@H](C)c2ccc(C#N)cc2O)C(C)(C)C)cnn1CC1CCCCC1 (single isomer, unassigned) [I-486]	100 to 1000 nM	> 10000 nM	> 75%	10 to 100 nM	–
CCC(CC)Cn1ncc(-c2ccc(N3CCc4cccc(C(=O)Nc5nc6ccccc6s5)c4C3)nc2C(=O)NS(=O)(=O)c2ccc(N3CCC(C(=O)N[C@H](C(=O)N4C[C@H](O)C[C@H]4C(=O)N[C@@H](C)c4ccc(-c5scnc5C)cc4)C(C)(C)C)CC3)cc2)c1C [I-349]	< 100 nM	> 10000 nM	> 75%	< 10 nM	–
Cc1ncsc1-c1ccc(CNC(=O)[C@@H]2C[C@@H](O)CN2C(=O)[C@@H](NC(=O)CCc2ccc(S(=O)(=O)NC(=O)c3nc(N4CCc5cccc(C(=O)Nc6nc7ccccc7s6)c5C4)ccc3-c3cnn(CC4CCCCC4)c3C)cn2)C(C)(C)C)cc1 [I-342]	100 to 1000 nM	> 10000 nM	> 75%	100 to 500 nM	–
Cc1ncsc1-c1ccc([C@H](C)NC(=O)[C@@H]2C[C@@H](O)CN2C(=O)[C@@H](NC(=O)[C@H]2CC[C@H](c3nc(C4CCCN(C(=O)c5nc(N6CCc7cccc(C(=O)Nc8nc9ccccc9s8)c7C6)ccc5-c5cnn(CC6CCCCC6)c5C)C4)no3)CC2)C(C)(C)C)cc1 (stereo partly shown) [I-301]	100 to 1000 nM	1000 to 10000 nM	50 to 75%	> 1000 nM	–
Cc1cc(N(C)c2ccc(-c3cnn(CC45CC6CC(CC(C6)C4)C5)c3C)c(C(=O)NS(=O)(=O)CCCC(=O)N[C@H](C(=O)N3C[C@H](O)C[C@H]3C(=O)N[C@@H](C)c3ccc(-c4scnc4C)cc3)C(C)(C)C)n2)nnc1Nc1nc2ccccc2s1 [I-370]	< 100 nM	> 10000 nM	> 75%	10 to 100 nM	–
Cc1ncsc1-c1ccc([C@H](C)NC(=O)[C@@H]2C[C@@H](O)CN2C(=O)[C@@H](NC(=O)N2CC(Cc3ccc(S(=O)(=O)NC(=O)c4nc(N5CCc6cccc(C(=O)Nc7nc8ccccc8s7)c6C5)ccc4-c4cnn(CC5CCCCC5)c4C)cc3)C2)C(C)(C)C)cc1 [I-346]	100 to 1000 nM	> 10000 nM	> 75%	10 to 100 nM	–
Cc1cc(N(C)c2ccc(-c3cnn(CC45CC6CC(CC(C6)C4)C5)c3C)c(C(=O)NS(=O)(=O)c3ccc(N4CC(C(=O)N[C@H](C(=O)N5C[C@H](O)C[C@H]5C(=O)N[C@@H](C)c5ccc(-c6scnc6C)cc5)C(C)(C)C)C4)cc3)n2)nnc1Nc1nc2ccccc2s1 [I-434]	< 100 nM	> 10000 nM	> 75%	10 to 100 nM	–
Cc1ncsc1-c1ccc([C@H](C)NC(=O)[C@@H]2C[C@@H](O)CN2C(=O)[C@@H](NC(=O)CCCCCS(=O)(=O)NC(=O)c2nc(N3CCc4cccc(C(=O)Nc5nc6ccccc6s5)c4C3)ccc2-c2cnn(CC3CCCCC3)c2C)C(C)(C)CCOP(=O)(O)O)cc1 [I-415]	> 3000 nM	> 10000 nM	50 to 75%	> 1000 nM	–
Cc1ncsc1-c1ccc(CNC(=O)[C@@H]2C[C@@H](O)CN2C(=O)[C@@H](NC(=O)[C@@H]2CCN(c3ccc(S(=O)(=O)NC(=O)c4nc(N5CCc6cccc(C(=O)Nc7nc8ccccc8s7)c6C5)ccc4-c4cnn(CC5CCCCC5)c4C)cc3)C2)C(C)(C)C)cc1 [I-410]	< 100 nM	> 10000 nM	> 75%	10 to 100 nM	–
Cc1cc(N(C)c2ccc(-c3cnn(CC45CC6CC(CC(C6)C4)C5)c3C)c(C(=O)NS(=O)(=O)CC3CCN(CC(=O)N[C@H](C(=O)N4C[C@H](O)C[C@H]4C(=O)N[C@@H](C)c4ccc(-c5scnc5C)cc4)C(C)(C)C)CC3)n2)nnc1Nc1nc2cccnc2s1 [I-449]	–	> 10000 nM	> 75%	100 to 500 nM	> 3000 nM
C#Cc1ccc(CNC(=O)[C@@H]2C[C@@H](O)CN2C(=O)[C@@H](NC(=O)C2CN(c3ccc(S(=O)(=O)NC(=O)c4nc(N(C)c5cc(C)c(Nc6nc7ccccc7s6)nn5)ccc4-c4cnn(CC56CC7CC(CC(C7)C5)C6)c4C)cc3)C2)C(C)(C)C)cc1 [I-440]	< 100 nM	> 10000 nM	> 75%	< 10 nM	–
Cc1ncsc1-c1ccc([C@H](C)NC(=O)[C@@H]2C[C@@H](O)CN2C(=O)[C@@H](NC(=O)CCCS(=O)(=O)NC(=O)c2nc(N3CCc4cccc(C(=O)Nc5nc6ccccc6s5)c4C3)ccc2-c2cnn(CC3CCCCC3)c2C)C(C)(C)C)cc1 [I-304]	100 to 1000 nM	1000 to 10000 nM	> 75%	< 10 nM	–
